In paper PMC10174317, “^18F-labeled FGFR1 peptide: a new PET probe for subtype FGFR1 receptor imaging” (Frontiers in Oncology, 2023):
Where a SMILES comes first, the peptide text is derived from it. The star is where a group is joined. NOTA = O=C(O)CN1CCN(CC(=O)O)CCN(CC(=O)*)CC1; AEEA = NCCOCCOCC(=O)O

Tests used:
[1] = Micro-PET/CT biodistribution in Calu-3 xenografts; assay type: in vivo, BALB/c nude mice; conditions: female, BALB/c nude, mouse, iv, total radioactivity, 11.1 MBq tail vein, micro-PET/CT ROI, mean ± SD; for tissue uptake at 0.5 h: 30 min post-injection; for tissue uptake at 1 h: 60 min post-injection; for tissue uptake at 2 h: 120 min post-injection
Protocol: (§1) All animal experiments were carried out in accordance with the Laboratory Animal Ethical Review of Animal Guidelines of China. BALB/c nude mice (sex, female; age, 4 weeks, body weight range, 19-21 g; China) were used for this study. Four cell lines (2*10^7 cells/nude mouse) were subcutaneously injected into the right forelimb to induce solid tumors. All xenograft nude mice were housed in laminar flow cabinets in a specific pathogen-free (SPF) environment and were provided ad libitum access to food and water at the Laboratory Animal Center of the Fourth Hospital of Hebei Medical University (China). The indication for micro-PET/CT imaging was xenografts with a tumor volume of 50-130 mm^3. All animal experiments strictly adhered to the Principles of the Laboratory Animal Ethical Committee of the Fourth Hospital Hebei Medical University (No. 2020016).
(§2) Xenograft mice (n=5) were fastly injected of 200 µl of [^18F]F-FGFR1 (11.1 MBq) through tail vein. For the in vivo blocking study, RT-112 (FGFR1-high expression) tumor-bearing mice (n = 5) were injected with a tracer that was mixed with 200-fold (1.58 mg) unlabeled peptide to saturate the receptors in the tumors. Mice were anesthetized via 3% isoflurane inhalation (RWD Life Science Inc. China) for induction and 2% isoflurane inhalation for maintenance. Micro-PET/CT imaging was performed on a micro-PET/SPECT/CT machine (NOVEL MEDICAL Equipment Ltd. China). Whole-body scans were performed 30, 60 and 120 min after tracer administration. The CT scanning parameters were 80 kV, 0.5 mA, 2000 ms/frames, and 360 frames; the images were reconstructed with a 512*512 matrix and a slice thickness of 0.18 mm. PET images were acquired with a 140*140 matrix and 10 min of total acquisition time. Reconstructed images were processed with the comprehensive image analysis software Pmod v4.201 (PMOD Technologies LLC. Switzerland). The biodistribution of the major organs (brain, heart, lung, liver, kidney, bone and muscle) and tumor were analyzed by manually outlining the regions of interest (ROIs) of the entire organs and tissue at each time point of the micro-PET/CT scan. The radioactivity accumulated in bone and muscle was measured in the limbs without xenograft tumors.

[2] = Micro-PET/CT biodistribution in RT-112-blocked xenografts; assay type: in vivo, BALB/c nude mice; conditions: female, BALB/c nude, mouse, iv, total radioactivity, n=5; for tissue uptake at 0.5 h / tissue uptake at 1 h / tissue uptake at 2 h: RT-112-blocked xenografts (tracer mixed with 200-fold, 1.58 mg, unlabeled peptide), 11.1 MBq tail vein, micro-PET/CT ROI, mean ± SD; for tissue uptake at 0.5 h: 30 min post-injection; for tissue uptake at 1 h: 60 min post-injection
Protocol: as §1, §2

[3] = Micro-PET/CT biodistribution in SNU-16 xenografts; assay type: in vivo, BALB/c nude mice; conditions: female, BALB/c nude, mouse, iv, total radioactivity, 11.1 MBq tail vein, micro-PET/CT ROI, mean ± SD; for tissue uptake at 0.5 h: 30 min post-injection; for tissue uptake at 1 h: 60 min post-injection; for tissue uptake at 2 h: 120 min post-injection
Protocol: as §1, §2

[4] = Micro-PET/CT biodistribution in A549 xenografts; assay type: in vivo, BALB/c nude mice; conditions: female, BALB/c nude, mouse, iv, total radioactivity, 11.1 MBq tail vein, micro-PET/CT ROI, mean ± SD; for tissue uptake at 0.5 h: 30 min post-injection; for tissue uptake at 1 h: 60 min post-injection; for tissue uptake at 2 h: 120 min post-injection
Protocol: as §1, §2

[5] = In vitro stability in normal saline (RP-HPLC); assay type: physicochemical; conditions: 37°C, 1, 2, 4 and 6 h
Protocol: The in vitro and in vivo stability of [^18F]F-FGFR1 was evaluated by RP-HPLC analysis. […] The radiochemical purity of the final compounds was determined by RP-HPLC.

[6] = bone, n=5, read-out: Biodistribution, Bone
[7] = brain, n=5, read-out: Biodistribution, Brain
[8] = heart, n=5, read-out: Biodistribution, Heart
[9] = kidney, n=5, read-out: Biodistribution, Kidney
[10] = liver, n=5, read-out: Biodistribution, Liver
[11] = lung, n=5, read-out: Biodistribution, Lung
[12] = muscle, n=5, read-out: Biodistribution, Muscle
[13] = tumor, n=5, read-out: Biodistribution, Tumor
[14] = bone, read-out: Biodistribution, Bone
[15] = brain, read-out: Biodistribution, Brain
[16] = heart, read-out: Biodistribution, Heart
[17] = kidney, read-out: Biodistribution, Kidney
[18] = liver, read-out: Biodistribution, Liver
[19] = lung, read-out: Biodistribution, Lung
[20] = muscle, read-out: Biodistribution, Muscle
[21] = tumor, read-out: Biodistribution, Tumor

- tissue uptake at 0.5 h [1, 6]: 0.42 ± 0.05 %ID/g
- tissue uptake at 1 h [1, 6]: 0.36 ± 0.05 %ID/g
- tissue uptake at 2 h [1, 6]: 0.37 ± 0.04 %ID/g
- tissue uptake at 0.5 h [1, 7]: 0.6 ± 0.04 %ID/g
- tissue uptake at 1 h [1, 7]: 0.66 ± 0.06 %ID/g
- tissue uptake at 2 h [1, 7]: 0.67 ± 0.18 %ID/g
- tissue uptake at 0.5 h [1, 8]: 0.79 ± 0.08 %ID/g
- tissue uptake at 1 h [1, 8]: 0.8 ± 0.07 %ID/g
- tissue uptake at 2 h [1, 8]: 0.79 ± 0.17 %ID/g
- tissue uptake at 0.5 h [1, 9]: 8.47 ± 0.83 %ID/g
- tissue uptake at 1 h [1, 9]: 7.48 ± 0.6 %ID/g
- tissue uptake at 2 h [1, 9]: 3.02 ± 0.69 %ID/g
- tissue uptake at 0.5 h [1, 10]: 1.4 ± 0.07 %ID/g
- tissue uptake at 1 h [1, 10]: 1.54 ± 0.12 %ID/g
- tissue uptake at 2 h [1, 10]: 1.33 ± 0.17 %ID/g
- tissue uptake at 0.5 h [1, 11]: 0.62 ± 0.08 %ID/g
- tissue uptake at 1 h [1, 11]: 0.54 ± 0.06 %ID/g
- tissue uptake at 2 h [1, 11]: 0.48 ± 0.04 %ID/g
- tissue uptake at 0.5 h [1, 12]: 0.28 ± 0.04 %ID/g
- tissue uptake at 1 h [1, 12]: 0.25 ± 0.03 %ID/g
- tissue uptake at 2 h [1, 12]: 0.3 ± 0.04 %ID/g
- tissue uptake at 0.5 h [1, 13]: 0.59 ± 0.08 %ID/g
- tissue uptake at 1 h [1, 13]: 0.58 ± 0.06 %ID/g
- tissue uptake at 2 h [1, 13]: 0.43 ± 0.03 %ID/g
- tissue uptake at 0.5 h [2, 14]: 0.31 ± 0.07 %ID/g
- tissue uptake at 1 h [2, 14]: 0.37 ± 0.04 %ID/g
- tissue uptake at 2 h ([2]; bone, 120 min post-injection, read-out: Biodistribution, Bone): 0.35 ± 0.07 %ID/g
- tissue uptake at 0.5 h [2, 15]: 0.61 ± 0.03 %ID/g
- tissue uptake at 1 h [2, 15]: 0.61 ± 0.06 %ID/g
- tissue uptake at 2 h ([2]; brain, 120 min post-injection, read-out: Biodistribution, Brain): 0.71 ± 0.1 %ID/g
- tissue uptake at 0.5 h [2, 16]: 0.74 ± 0.08 %ID/g
- tissue uptake at 1 h [2, 16]: 0.7 ± 0.07 %ID/g
- tissue uptake at 2 h ([2]; heart, 120 min post-injection, read-out: Biodistribution, Heart): 0.75 ± 0.14 %ID/g
- tissue uptake at 0.5 h [2, 17]: 9.35 ± 0.82 %ID/g
- tissue uptake at 1 h [2, 17]: 7.31 ± 0.87 %ID/g
- tissue uptake at 2 h ([2]; kidney, 120 min post-injection, read-out: Biodistribution, Kidney): 3.37 ± 0.54 %ID/g
- tissue uptake at 0.5 h [2, 18]: 0.67 ± 0.16 %ID/g
- tissue uptake at 1 h [2, 18]: 0.51 ± 0.09 %ID/g
- tissue uptake at 2 h ([2]; liver, 120 min post-injection, read-out: Biodistribution, Liver): 0.5 ± 0.09 %ID/g
- tissue uptake at 0.5 h [2, 19]: 0.6 ± 0.05 %ID/g
- tissue uptake at 1 h [2, 19]: 0.59 ± 0.04 %ID/g
- tissue uptake at 2 h ([2]; lung, 120 min post-injection, read-out: Biodistribution, Lung): 0.51 ± 0.07 %ID/g
- tissue uptake at 0.5 h [2, 20]: 0.26 ± 0.03 %ID/g
- tissue uptake at 1 h [2, 20]: 0.29 ± 0.03 %ID/g
- tissue uptake at 2 h ([2]; muscle, 120 min post-injection, read-out: Biodistribution, Muscle): 0.27 ± 0.02 %ID/g
- tissue to tissue ratio at 2 h ([2]; tumor and liver, RT-112-blocked xenografts (200-fold unlabeled peptide), 120 min post-injection, micro-PET/CT, read-out: Tumor to liver ratio (T/L)): 0.85 ± 0.22
- tissue uptake at 0.5 h [2, 21]: 0.4 ± 0.02 %ID/g
- tissue uptake at 1 h [2, 21]: 0.39 ± 0.03 %ID/g
- tissue uptake at 2 h ([2]; tumor, 120 min post-injection, read-out: Biodistribution, Tumor): 0.4 ± 0.02 %ID/g
- tissue uptake at 0.5 h [3, 6]: 0.38 ± 0.1 %ID/g
- tissue uptake at 1 h [3, 6]: 0.37 ± 0.05 %ID/g
- tissue uptake at 2 h [3, 6]: 0.41 ± 0.02 %ID/g
- tissue uptake at 0.5 h [3, 7]: 0.56 ± 0.06 %ID/g
- tissue uptake at 1 h [3, 7]: 0.6 ± 0.07 %ID/g
- tissue uptake at 2 h [3, 7]: 0.56 ± 0.1 %ID/g
- tissue uptake at 0.5 h [3, 8]: 0.7 ± 0.09 %ID/g
- tissue uptake at 1 h [3, 8]: 0.62 ± 0.09 %ID/g
- tissue uptake at 2 h [3, 8]: 0.55 ± 0.06 %ID/g
- tissue uptake at 0.5 h [3, 9]: 8.04 ± 0.97 %ID/g
- tissue uptake at 1 h [3, 9]: 7.43 ± 0.83 %ID/g
- tissue uptake at 2 h [3, 9]: 4.23 ± 0.7 %ID/g
- tissue uptake at 0.5 h [3, 10]: 1.54 ± 0.11 %ID/g
- tissue uptake at 1 h [3, 10]: 1.57 ± 0.12 %ID/g
- tissue uptake at 2 h [3, 10]: 1.45 ± 0.1 %ID/g
- tissue uptake at 0.5 h [3, 11]: 0.67 ± 0.08 %ID/g
- tissue uptake at 1 h [3, 11]: 0.6 ± 0.03 %ID/g
- tissue uptake at 2 h [3, 11]: 0.46 ± 0.09 %ID/g
- tissue uptake at 0.5 h [3, 12]: 0.27 ± 0.06 %ID/g
- tissue uptake at 1 h [3, 12]: 0.27 ± 0.03 %ID/g
- tissue uptake at 2 h [3, 12]: 0.31 ± 0.02 %ID/g
- tissue uptake at 0.5 h [3, 13]: 0.66 ± 0.05 %ID/g
- tissue uptake at 1 h [3, 13]: 0.6 ± 0.06 %ID/g
- tissue uptake at 2 h [3, 13]: 0.45 ± 0.04 %ID/g
- tissue uptake at 0.5 h [4, 6]: 0.33 ± 0.1 %ID/g
- tissue uptake at 1 h [4, 6]: 0.35 ± 0.06 %ID/g
- tissue uptake at 2 h [4, 6]: 0.39 ± 0.02 %ID/g
- tissue uptake at 0.5 h [4, 7]: 0.61 ± 0.06 %ID/g
- tissue uptake at 1 h [4, 7]: 0.72 ± 0.13 %ID/g
- tissue uptake at 2 h [4, 7]: 0.64 ± 0.17 %ID/g
- tissue uptake at 0.5 h [4, 8]: 0.9 ± 0.09 %ID/g
- tissue uptake at 1 h [4, 8]: 0.88 ± 0.04 %ID/g
- tissue uptake at 2 h [4, 8]: 0.64 ± 0.07 %ID/g
- tissue uptake at 0.5 h [4, 9]: 9.35 ± 1.87 %ID/g
- tissue uptake at 1 h [4, 9]: 7.89 ± 1.06 %ID/g
- tissue uptake at 2 h [4, 9]: 4.46 ± 0.6 %ID/g
- tissue uptake at 0.5 h [4, 10]: 1.53 ± 0.11 %ID/g
- tissue uptake at 1 h [4, 10]: 1.52 ± 0.18 %ID/g
- tissue uptake at 2 h [4, 10]: 1.58 ± 0.08 %ID/g
- tissue uptake at 0.5 h [4, 11]: 0.69 ± 0.12 %ID/g
- tissue uptake at 1 h [4, 11]: 0.65 ± 0.04 %ID/g
- tissue uptake at 2 h [4, 11]: 0.53 ± 0.07 %ID/g
- tissue uptake at 0.5 h [4, 12]: 0.27 ± 0.03 %ID/g
- tissue uptake at 1 h [4, 12]: 0.27 ± 0.02 %ID/g
- tissue uptake at 2 h [4, 12]: 0.28 ± 0.02 %ID/g
- tissue uptake at 0.5 h [4, 13]: 0.87 ± 0.08 %ID/g
- tissue uptake at 1 h [4, 13]: 0.64 ± 0.08 %ID/g
- tissue uptake at 2 h [4, 13]: 0.53 ± 0.04 %ID/g
- Radiochemical purity after incubation (in vitro stability) [5]: exceeded 90%
Compound: CC(C)C[C@H](NC(=O)[C@H](CO)NC(=O)[C@H](CCCCN)NC(=O)[C@H](Cc1c[nH]c2ccccc12)NC(=O)[C@H](CCC(=O)O)NC(=O)[C@H](C)NC(=O)[C@H](CCCCN)NC(=O)COCCOCCNC(=O)CN1CCN(CC(=O)O)CCN(CC(=O)O)CC1)C(=O)NCC(=O)N[C@@H](CCC(=O)O)C(=O)N[C@@H](CCC(=O)O)C(=O)N[C@@H](C)C(=O)N[C@@H](Cc1c[nH]c2ccccc12)C(=O)N[C@@H](Cc1c[nH]cn1)C(=O)N[C@@H](CO)C(=O)N[C@@H](CCCCN)C(=O)O [[^18F]F-FGFR1] ({NOTA-AEEA}-KAEWKSLGEEAWHSK-OH; N-terminus and C-terminus assumed)
